Results taken from patent US12336981B2, “Compounds and compositions for the inhibition of NAMPT” (Valo Health, Inc., priority 2010, dated 2025).
Read-outs that look alike come from different tables or passages of the source.

How the values were obtained:
A2780 cells = assay: In-vitro cell proliferation assay (SRB), A2780 cells; format: cell-based; conditions: Homo sapiens, A2780, 72 h, A2780 cells, 72 hours, read-out: A2780 IC50
Procedure, shortened: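 Viable cells measured by SRB staining after 6% TCA fixation, absorbance 570 nm. Media-only background subtracted; % inhibition derived at two compound concentrations.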

NAMPT = target: T1, NAMPT (Homo sapiens, UniProt P43490); assay: Biochemical inhibition assay: NAMPT enzymatic reaction, NMN quantified by mass spectrometry; conditions: read-out: Biochem IC50
T1 construct: His tag; host or cells: E. coli
T1 sequence (P43490 whole entry): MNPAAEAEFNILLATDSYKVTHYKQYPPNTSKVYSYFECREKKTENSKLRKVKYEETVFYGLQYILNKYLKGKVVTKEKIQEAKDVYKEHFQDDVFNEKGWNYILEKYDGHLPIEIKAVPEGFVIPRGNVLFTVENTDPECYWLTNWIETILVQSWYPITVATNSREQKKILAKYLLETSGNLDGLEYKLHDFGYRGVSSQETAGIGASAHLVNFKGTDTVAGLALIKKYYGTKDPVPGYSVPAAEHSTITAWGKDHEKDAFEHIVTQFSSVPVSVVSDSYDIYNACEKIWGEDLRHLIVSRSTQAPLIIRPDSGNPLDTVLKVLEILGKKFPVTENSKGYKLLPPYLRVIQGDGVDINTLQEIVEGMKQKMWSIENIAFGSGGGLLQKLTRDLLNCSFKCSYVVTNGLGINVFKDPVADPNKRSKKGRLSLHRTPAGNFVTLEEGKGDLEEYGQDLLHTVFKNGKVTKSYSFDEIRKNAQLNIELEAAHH
Procedure, shortened: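 Inhibition of E. coli-expressed His-tagged human NAMPT, measured as NMN formation by mass spectrometry after a 30 min room-temperature reaction containing 1 μM NAM, 100 μM PRPP and 2.5 mM ATP.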

SMILES	IC50 (A2780 cells; SRB)	IC50 (NAMPT; NAMPT enzymatic reaction)	IC50 (NAMPT; NAMPT enzymatic assay)	IC50 (A2780 cells; SRB assay)
COc1ccc(OC)c(S(=O)(=O)c2ccc(CNC(=O)c3cnc4[nH]ncc4c3)cc2)c1OC [N-({4-[(2,3,6-trimethoxybenzene)sulfonyl]phenyl}methyl)-1H-pyrazolo[3,4-b]pyridine-5-carboxamide]	66.3 nM	79.7 nM	–	–
O=C(NCc1ccc(S(=O)(=O)c2cccc(Cl)c2)cc1)c1cc2ncccc2[nH]1	13 nM	3.9 nM	–	–
CCCCOc1cc(F)ccc1S(=O)(=O)c1ccc(CNC(=O)c2cnc3[nH]ncc3c2)cc1 [N-({4-[(2-butoxy-4-fluorobenzene)sulfonyl]phenyl}methyl)-1H-pyrazolo[3,4-b]pyridine-5-carboxamide]	100 to 1000 nM	176 nM	–	–
O=C(NCc1ccc(S(=O)(=O)c2cccc3c2OCO3)cc1)c1cc2ccncc2o1 [N-{[4-(2H-1,3-benzodioxole-4-sulfonyl)phenyl]methyl}furo[2,3-c]pyridine-2-carboxamide]	26.6 nM	–	25.8 nM	–
O=C(NCc1ccc(S(=O)(=O)c2ccc(F)c(OCC(F)(F)F)c2)cc1)c1cnc2nccn2c1	6.5 nM	–	2.4 nM	–
CCCCOc1cccc(S(=O)(=O)c2ccc(CNC(=O)c3cc4cnccc4[nH]3)cc2)c1 [N-({4-[(3-butoxybenzene)sulfonyl]phenyl}methyl)-1H-pyrrolo[3,2-c]pyridine-2-carboxamide]	21.6 nM	11.5 nM	–	–
Cc1ccc(Cl)cc1S(=O)(=O)c1ccc(CNC(=O)c2cnc3[nH]ncc3c2)cc1 [N-({4-[(5-chloro-2-methylbenzene)sulfonyl]phenyl}methyl)-1H-pyrazolo[3,4-b]pyridine-5-carboxamide]	13.9 nM	22.7 nM	–	–
CC(C)Oc1cccc(S(=O)(=O)c2ccc(CNC(=O)c3cc4ccncc4o3)cc2)c1	14.4 nM	–	12.6 nM	–
COc1ccc(S(=O)(=O)c2ccc(CNC(=O)c3cc4cnccc4[nH]3)cc2)cc1F [N-({4-[(3-fluoro-4-methoxybenzene)sulfonyl]phenyl}methyl)-1H-pyrrolo[3,2-c]pyridine-2-carboxamide]	–	5 nM	–	4 nM
Cc1cc(S(=O)(=O)c2ccc(CNC(=O)c3ccc4nccn4c3)cc2)c(C)cc1F	11 nM	44 nM	–	–
O=C(NCc1ccc(S(=O)(=O)c2cccc3c2oc2ccccc23)cc1)c1cnc2nccn2c1	2.9 nM	–	1.7 nM	–
CCCOc1ccc(Cl)cc1S(=O)(=O)c1ccc(CNC(=O)c2cnc3[nH]ncc3c2)cc1 [N-({4-[(5-chloro-2-propoxybenzene)sulfonyl]phenyl}methyl)-1H-pyrazolo[3,4-b]pyridine-5-carboxamide]	25.1 nM	49.2 nM	–	–
Cn1c(S(=O)(=O)c2ccc(CNC(=O)c3cc4ccncc4s3)cc2)cc2ccccc21 [N-{[4-(1-methyl-1H-indole-2-sulfonyl)phenyl]methyl}thieno[2,3-c]pyridine-2-carboxamide]	3.4 nM	–	5.2 nM	–
COc1ccc(C)cc1S(=O)(=O)c1ccc(CNC(=O)c2cc3cnccc3[nH]2)cc1 [N-({4-[(2-methoxy-5-methylbenzene)sulfonyl]phenyl}methyl)-1H-pyrrolo[3,2-c]pyridine-2-carboxamide]	–	12 nM	–	3 nM
O=C(NCc1ccc(S(=O)(=O)c2ccnc(N3CCOCC3)c2Cl)cc1)c1cc2ccncc2s1 [N-({4-[3-chloro-2-(morpholin-4-yl)pyridine-4-sulfonyl]phenyl}methyl)thieno[2,3-c]pyridine-2-carboxamide]	1.8 nM	–	8.5 nM	–
COc1ccc(C(F)(F)F)cc1NS(=O)(=O)c1ccc(CNC(=O)c2cc3cnccc3[nH]2)cc1 [N-[(4-{[2-methoxy-5-(trifluoromethyl)phenyl]sulfamoyl}phenyl)methyl]-1H-pyrrolo[3,2-c]pyridine-2-carboxamide]	–	0.5 nM	–	1.6 nM
CN1CCN(c2ccc(S(=O)(=O)c3ccc(CNC(=O)c4cc5cnccc5[nH]4)cc3)cn2)CC1 [N-({4-[6-(4-methylpiperazin-1-yl)pyridine-3-sulfonyl]phenyl}methyl)-1H-pyrrolo[3,2-c]pyridine-2-carboxamide]	0.6 nM	–	6 nM	–
COc1ccc(OC(F)(F)F)cc1S(=O)(=O)c1ccc(CNC(=O)c2ccc3nccn3c2)cc1	14.4 nM	–	67.7 nM	–
Cc1cc(S(=O)(=O)c2ccc(CNC(=O)c3cnc4nccn4c3)cc2)ccc1F	9.6 nM	2.2 nM	–	–
CS(=O)(=O)c1cccc(S(=O)(=O)c2ccc(CNC(=O)c3cc4ccncc4s3)cc2)c1	3.5 nM	1.7 nM	–	–
COc1ccc(C(C)(C)C)cc1S(=O)(=O)c1ccc(CNC(=O)c2cc3ccncc3o2)cc1	10.1 nM	–	21.8 nM	–
CN(C)CCc1ccc(S(=O)(=O)c2ccc(CNC(=O)c3ccc4nccn4c3)cc2)cc1	0.8 nM	–	2.1 nM	–
COc1ccc(S(=O)(=O)c2ccc(CNC(=O)c3ccc4nccn4c3)cc2)cc1F [N-({4-[(3-fluoro-4-methoxybenzene)sulfonyl]phenyl}methyl)imidazo[1,2-a]pyridine-6-carboxamide]	2.89 nM	5.95 nM	–	–
COc1cccc(S(=O)(=O)c2ccc(CNC(=O)c3cc4ccncc4s3)cc2)c1 [N-({4-[(3-methoxybenzene)sulfonyl]phenyl}methyl)thieno[2,3-c]pyridine-2-carboxamide]	–	5 nM	–	2.6 nM

SMILES	IC50 (A2780 cells; SRB)	IC50 (NAMPT; NAMPT enzymatic reaction)	IC50 (NAMPT; NAMPT enzymatic assay)	IC50 (A2780 cells; SRB assay)
O=C(NCc1ccc(S(=O)(=O)c2cccc3c2oc2ccccc23)cc1)c1cnc2[nH]ncc2c1	7.52 nM	–	21 nM	–
CC(C)COc1ccc(S(=O)(=O)c2ccc(CNC(=O)c3cc4ccncc4o3)cc2)cc1	11.6 nM	–	9.4 nM	–
COc1c(F)cccc1S(=O)(=O)c1ccc(CNC(=O)c2cc3ccncc3s2)cc1	12.5 nM	13.3 nM	–	–
COc1ccc(Cl)cc1S(=O)(=O)c1ccc(CNC(=O)c2cc3ccncc3s2)cc1 [N-({4-[(5-chloro-2-methoxybenzene)sulfonyl]phenyl}methyl)thieno[2,3-c]pyridine-2-carboxamide]	–	4 nM	–	1.3 nM
O=C(NCc1ccc(S(=O)(=O)c2cc(Cl)cc(C(F)(F)F)c2)cc1)c1cc2cnccc2[nH]1 [N-[(4-{[3-chloro-5-(trifluoromethyl)benzene]sulfonyl}phenyl)methyl]-1H-pyrrolo[3,2-c]pyridine-2-carboxamide]	2.7 nM	–	19.9 nM	–
COc1cc(F)cc(S(=O)(=O)c2ccc(CNC(=O)c3cnc4nccn4c3)cc2)c1	3.3 nM	1.6 nM	–	–
O=C(NCc1ccc(S(=O)(=O)c2ccccc2C(F)(F)F)cc1)c1ccc2nccn2c1 [N-[(4-{[2-(trifluoromethyl)benzene]sulfonyl}phenyl)methyl]imidazo[1,2-a]pyridine-6-carboxamide]	57.9 nM	–	34.1 nM	–
CN(C)c1ccc(S(=O)(=O)c2ccc(CNC(=O)c3cc4cnccc4[nH]3)cc2)cn1 [N-({4-[6-(dimethylamino)pyridine-3-sulfonyl]phenyl}methyl)-1H-pyrrolo[3,2-c]pyridine-2-carboxamide]	3.4 nM	–	20.9 nM	–
O=C(NCc1ccc(S(=O)(=O)c2ccc(C(F)(F)F)cc2)cc1)c1cnc2nccn2c1	23.5 nM	–	6 nM	–
CN(C)C(=O)c1ccccc1S(=O)(=O)c1ccc(CNC(=O)c2cc3ccncc3o2)cc1	1000 to 10000 nM	–	100 to 1000 nM	–
O=C(NCc1ccc(S(=O)(=O)c2cc(F)cc(Cl)c2)cc1)c1cc2ccncc2s1	0.6 nM	1.4 nM	–	–
O=C(NCc1ccc(S(=O)(=O)c2cccc(Cl)c2F)cc1)c1cnc2nccn2c1	17.6 nM	2.4 nM	–	–
NS(=O)(=O)c1cccc(S(=O)(=O)c2ccc(CNC(=O)c3ccc4nccn4c3)cc2)c1	54.6 nM	10.3 nM	–	–
O=C(NCc1ccc(S(=O)(=O)c2cccc(Cl)c2F)cc1)c1cc2ccncc2o1	12.8 nM	10.9 nM	–	–
COc1ccc(OC)c(S(=O)(=O)c2ccc(CNC(=O)c3ccc4nccn4c3)cc2)c1 [N-({4-[(2,5-dimethoxybenzene)sulfonyl]phenyl}methyl)imidazo[1,2-a]pyridine-6-carboxamide]	12.8 nM	20.2 nM	–	–
CCCCOc1ccc(Cl)cc1S(=O)(=O)c1ccc(CNC(=O)c2cc3ccncc3o2)cc1	66.3 nM	24.3 nM	–	–
Cc1cc(Cl)cc(S(=O)(=O)c2ccc(CNC(=O)c3cnc4[nH]ncc4c3)cc2)c1	2.6 nM	6.2 nM	–	–
Cc1ccc(S(=O)(=O)c2ccc(CNC(=O)c3cc4ccncc4s3)cc2)c(F)c1 [N-({4-[(2-fluoro-4-methylbenzene)sulfonyl]phenyl}methyl)thieno[2,3-c]pyridine-2-carboxamide]	–	8 nM	–	20.7 nM
COc1ccc(S(=O)(=O)c2ccc(CNC(=O)c3cc4ccncc4o3)cc2)c(OC)n1 [N-{[4-(2,6-dimethoxypyridine-3-sulfonyl)phenyl]methyl}furo[2,3-c]pyridine-2-carboxamide]	11 nM	–	6.6 nM	–
O=C(Nc1ccc(S(=O)(=O)N2CCCCC2)cc1)c1cc2cnccc2[nH]1 [N-[4-(piperidine-1-sulfonyl)phenyl]-1H-pyrrolo[3,2-c]pyridine-2-carboxamide]	–	8 nM	–	6 nM
CCCOc1cccc(F)c1S(=O)(=O)c1ccc(CNC(=O)c2cc3ccncc3o2)cc1	14.2 nM	13.3 nM	–	–
COc1cc(-n2cccn2)ccc1S(=O)(=O)c1ccc(CNC(=O)c2cc3ccncc3s2)cc1 [N-[(4-{[2-methoxy-4-(1H-pyrazol-1-yl)benzene]sulfonyl}phenyl)methyl]thieno[2,3-c]pyridine-2-carboxamide]	–	5 nM	–	2.6 nM
N#Cc1ccccc1S(=O)(=O)c1ccc(CNC(=O)c2ccc3nccn3c2)cc1	61.3 nM	15.6 nM	–	–
